Experimental data taken from patent US20240025903A1, “Bicyclic Compounds and Uses Thereof for the Treatment of Diseases” (Athira Pharma, Inc., priority 2020, published 2024).
Where two headings read alike, the source gives them in different places.

Legend:
[1] = Non-specific protein binding (rapid equilibrium dialysis); type: in vitro ADME, Sprague-Dawley rats; conditions: both sexes, Sprague-Dawley, RED device, 4-hour incubation at 37° C.
Description: Plasma and tissue exposures of exemplary compounds were scaled by their non-specific affinity for protein binding in target tissues or fluids to determine the fraction of compound available for interaction with the target. Non-specific binding was determined in blood plasma and brain homogenate collected from mixed-sex Sprague-Dawley rats.
Known concentrations of test compounds were mixed with plasma or brain homogenate and incubated in the donor chamber of a rapid equilibrium dialysis (RED) device with empty PBS buffer in the receiving chamber. After a 4-hour incubation at 37° C. in an orbital shaking incubator, compound in each chamber was quantified by LC-MS/MS. The unbound fraction (fu,tissue) was calculated using the following formula:
[formula] • where: • fu,tissue is the unbound fraction in the tissue; • fu,homogenate is the ratio of concentration in the buffer chamber to concentration in the sample chamber; and • D is the dilution factor used to produce the sample.

[2] = tested on: scopolamine-induced spatial memory deficit in rats; assay: Scopolamine-induced spatial memory deficit in the Morris water maze (compound 1a); type: in vivo; conditions: rat, scopolamine 2 mg/kg IP, escape latency over 5 days, post-test p-value
Description: Exemplary compound 1a was evaluated for its ability to reverse chemically-induced spatial memory deficits in rats in the Morris water maze. The water maze consists of a large round tank (diameter 1.5 m) filled with 23-26° C. water to a depth of −30 cm and the water was clouded with white paint. A round platform was fixed such that it rested 2-3 cm below the surface of the water. High-contrast visual cues were placed around the tank to aid spatial orientation of test animals. Testing consisted of placing an animal into the water facing the tank wall at one of three randomly assigned starting locations and allowing the animal to swim and search for the hidden platform for up to 90 seconds. The time taken for the animal to locate the platform was recorded as the escape latency. Animals were tested 5 times per day with a 30 second rest period between trials. Testing was completed for a total of 5 consecutive days.
Animals were divided into groups (N=12 per group) depending on treatment. Control animals received only empty vehicle. Scopolamine groups received 2 mg/kg scopolamine dissolved in sterile saline by intraperitoneal (IP) injection 30 minutes prior to testing. Test compound groups received test compound at various concentrations by oral gavage (PO) dissolved in 78% sterile saline, 20% polyethylene glycol (PEG-400), and 2% DMSO 40 minutes prior to testing. Escape latencies were recorded for each animal for 5 trials each day for 5 consecutive days. Changes in escape latency curves were statistically analyzed by 2-way ANOVA with Bonferoni post-test.

[3] = tested on: scopolamine-induced spatial memory deficit in rats; assay: Scopolamine-induced spatial memory deficit in the Morris water maze (compounds 2a and 6a); type: in vivo; conditions: rat, scopolamine 3 mg/kg IP, escape latency over 8 days, post-test p-value
Description: Exemplary compounds 2a and 6a were evaluated for their ability to reverse chemically-induced spatial memory deficits in rats in the Morris water maze. The water maze consists of a large round tank (diameter 2.1 m) filled with 26-28° C. water to a depth of −30 cm and the water was clouded with white paint. A round platform (13 cm diameter) was fixed such that it rested 2-3 cm below the surface of the water. High-contrast visual cues were placed around the tank to aid spatial orientation of test animals. Testing consisted of placing an animal into the water facing the tank wall at one of three randomly assigned starting locations and allowing the animal to swim and search for the hidden platform for up to 120 seconds. The time taken for the animal to locate the platform was recorded as the escape latency. Animals were tested 5 times per day with a 30 second rest period between trials. Testing was completed for a total of 8 consecutive days.
Animals were divided into groups (N=8 per group) depending on treatment. Control animals received only empty vehicle. Scopolamine groups received 3 mg/kg scopolamine dissolved in sterile saline by intraperitoneal (IP) injection 30 minutes prior to testing. Test compound groups received test compound at various concentrations by oral gavage (PO) dissolved in 48% sterile saline, 50% polyethylene glycol (PEG-400), and 2% DMSO 40 minutes prior to testing. Escape latencies were recorded for each animal for 5 trials each day for 8 consecutive days. Changes in escape latency curves were statistically analyzed by 2-way ANOVA with Bonferoni post-test.

[4] = rat blood plasma, read-out: Unbound Fraction Plasma
[5] = rat brain homogenate, read-out: Unbound Fraction Brain

Row | SMILES | fraction unbound at 4 h [1, 4] | fraction unbound at 4 h [1, 5] | Cognitive Improvement ([2]; 0.5 mg/kg PO) | Cognitive Improvement ([2]; 2 mg/kg PO) | Cognitive Improvement ([2]; 8 mg/kg PO) | Cognitive Improvement ([3]; 1 mg/kg PO) | Cognitive Improvement ([3]; 10 mg/kg PO) | Cognitive Improvement ([3]; 0.1 mg/kg PO)
1 | CCC(C)CN1CC2N(C(=O)c3ccc(F)cc3)CCC(=O)N2C(C)C1=O (stereo not shown) [Compound 11, 1-(4-fluorobenzoyl)-6-methyl-8-(2-methylbutyl)hexahydro-4H-pyrazino[1,2-a]pyrimidine-4,7(6H)-dione] | < 0.1 | 0.1 to 0.5 | – | – | – | – | – | –
2 | CCC(C)CN1CC2N(C(=O)c3ccc(C(F)(F)F)c(Cl)c3)CCC(=O)N2C(C)C1=O (stereo not shown) [Compound 12, 1-(3-chloro-4-(trifluoromethyl)benzoyl)-6-methyl-8-(2-methylbutyl)hexahydro-4H-pyrazino[1,2-a]pyrimidine-4,7(6H)-dione] | 0.1 to 0.5 | 0.1 to 0.5 | – | – | – | – | – | –
3 | CC1C(=O)N(CC2CCC2)CC2N(C(=O)c3ccc(OC(F)F)cc3)CCC(=O)N12 (stereo not shown) [Compound 14] | 0.1 to 0.5 | > 0.9 | – | – | – | – | – | –
4 | CCC(C)CN1CC2N(C(=O)c3ccc(C(F)(F)F)cc3)CCC(=O)N2[C@@H](C)C1=O (stereo partly shown) [Compound 1a] | 0.5 to 0.9 | 0.1 to 0.5 | + (+ indicates post-test p-value between 0.06 and 0.05) | − (− indicates post-test p-value above 0.06) | − (− indicates post-test p-value above 0.06) | – | – | –
5 | CCC(C)CN1CC2N(Cc3ccc(O)nc3)CCC(=O)N2[C@@H](C)C1=O (stereo partly shown) [Compound 7a] | > 0.9 | 0.5 to 0.9 | – | – | – | – | – | –
6 | C=CCCN1CC2N(C(=O)c3ccc(C(F)(F)F)cc3)CCC(=O)N2C(C)C1=O (stereo not shown) [Compound 22] | 0.1 to 0.5 | > 0.9 | – | – | – | – | – | –
7 | CCC(C)CN1CC2N(Cc3ccc(OC(F)F)cc3)CCC(=O)N2[C@@H](C)C1=O (stereo partly shown) [Compound 6a] | 0.1 to 0.5 | < 0.1 | – | – | – | − (− indicates post-test p-value above 0.06) | ++ (++ indicates post-test p-value between 0.05 and 0.01) | –
8 | CC1C(=O)N(CCC2CCC2)CC2N(C(=O)c3ccc(C(F)(F)F)cc3)CCC(=O)N12 (stereo not shown) [Compound 20] | 0.1 to 0.5 | 0.5 to 0.9 | – | – | – | – | – | –
9 | CCC(C)CN1CC2N(C(=O)c3ccc(OC(F)F)cc3)CCC(=O)N2[C@@H](C)C1=O (stereo partly shown) [Compound 2a] | 0.5 to 0.9 | 0.1 to 0.5 | – | – | – | +++ (+++ indicates post-test p-value below 0.01) | − (− indicates post-test p-value above 0.06) | − (− indicates post-test p-value above 0.06)
10 | CCC(C)CN1CC2N(Cc3ccc(C(F)(F)F)cc3)CCC(=O)N2[C@@H](C)C1=O (stereo partly shown) [Compound 5a] | < 0.1 | < 0.1 | – | – | – | – | – | –
